Experimental data taken from patent publication US7057048B2, “Androgen receptor antagonists” (Warner Lambert Company LLC, priority 2003, dated 2006).

These compounds were tested against T1, androgen receptor (Homo sapiens, UniProt P10275) (assay: AR Antagonist Cell Assay (MMTV-luciferase reporter, DHT-stimulated)). Conditions: MDA-MB453-MMTV clone 54-19 cells, inhibition of induction by 100 pM DHT, 17 hr.
T1 sequence (P10275 1-920 Q868H): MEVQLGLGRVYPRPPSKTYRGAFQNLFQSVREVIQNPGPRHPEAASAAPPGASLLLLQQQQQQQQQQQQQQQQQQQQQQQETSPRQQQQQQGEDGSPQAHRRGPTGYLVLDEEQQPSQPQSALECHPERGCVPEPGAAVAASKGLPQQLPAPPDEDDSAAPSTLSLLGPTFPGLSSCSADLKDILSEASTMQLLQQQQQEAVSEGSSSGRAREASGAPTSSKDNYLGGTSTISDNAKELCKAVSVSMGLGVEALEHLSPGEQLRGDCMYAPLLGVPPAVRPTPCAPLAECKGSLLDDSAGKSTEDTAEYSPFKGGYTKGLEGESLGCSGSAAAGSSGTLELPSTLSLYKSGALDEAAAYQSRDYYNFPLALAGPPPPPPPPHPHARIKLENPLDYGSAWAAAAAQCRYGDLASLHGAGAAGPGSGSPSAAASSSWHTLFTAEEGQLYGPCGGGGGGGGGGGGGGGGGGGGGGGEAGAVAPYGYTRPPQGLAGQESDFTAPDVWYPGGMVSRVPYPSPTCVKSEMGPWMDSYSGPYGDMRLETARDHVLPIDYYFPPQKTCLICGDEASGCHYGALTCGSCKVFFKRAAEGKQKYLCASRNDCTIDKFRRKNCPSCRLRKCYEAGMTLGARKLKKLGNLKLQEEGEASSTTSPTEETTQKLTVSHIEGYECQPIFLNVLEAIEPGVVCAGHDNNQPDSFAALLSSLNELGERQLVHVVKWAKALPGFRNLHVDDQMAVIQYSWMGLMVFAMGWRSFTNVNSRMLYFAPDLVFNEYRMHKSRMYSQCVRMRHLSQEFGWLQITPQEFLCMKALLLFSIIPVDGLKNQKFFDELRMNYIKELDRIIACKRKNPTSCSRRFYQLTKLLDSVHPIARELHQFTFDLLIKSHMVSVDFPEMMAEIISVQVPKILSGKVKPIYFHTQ
Type: cell-based
Method: The compounds ability to antagonize the effects of androgen on the androgen receptor were determined in the protocol described immediately below.
Experimental Procedure for AR Antagonist Cell Assay
Cell line: MDA-MB453-MMTV clone 54-19. This cell line is a stable transfected cell line with MDA-MB453 cell background (human breast tumor cell expressing high level of androgen receptor). A MMTV minimal promoter containing ARE was first cloned in front of a firefly luciferase reporter gene. Then the cascade was cloned into transfection vector pUV120puro. Electroporation method was used for transfecting MDA-MB-453 cell. Puromycin resistant stable cell line was selected.
Cell Culture Media and Reagents:
Culture medium: DMEM (high glucose, Gibco cat #: 11960-044), 10% FBS, and 1% L-glutamine
Plating medium: DMEM (phenol red free), 10% charcoal treated HyClone serum, 1% L-glutamine
Assay medium: DMEM (phenol red free), 1% charcoal treated HyClone serum, 1% L-glutamine, and 1% penicillin/streptomycin
3×luciferase buffer: 2% beta-mercaptoethanol, 0.6% ATP, 0.0135% luciferine in cell lysis buffer
• 1. Cells are maintained in culture medium, splitting cells when they reach 80–90% confluence • 2. To test compounds, 10,000 cells/well are plated to opaque 96 cell culture plate in 100 ul/well plating medium, culture for overnight at 37° C. in cell culture incubator • 3. Carefully remove plating medium, then add 80 ul/well of pre-warmed assay medium, add 10 ul/well testing compound (final concentration at 10 uM or 1 uM), incubate at 37° C. for 30 minutes • 4. Add 10 ul/well freshly prepared DHT (final concentration at 100 pM) to each well, incubate at 37° C. for 17 hr (overnight) • 5. Add 50 ul/well 3×luciferase buffer, incubate at room temperature for 5 minutes, then count on Luminometer
The fold induction over background by 100 pM DHT in the absence of testing compounds is standardized as 100% and experimental result is expressed as percentage of inhibition by testing compounds.
For `O=c1cc(C(F)(F)F)c2cc(Cc3ccc(S(=O)(=O)N4CCCC(CO)C4)cc3)ccc2o1` (stereo not shown) [Example 45, 6-[4-(3-Hydroxymethyl-piperidine-1-sulfonyl)benzyl]-4-trifluoromethylchromen-2-one], the IC50 was 7.6 µM.
In the case of `O=c1cc(C(F)(F)F)c2cc(Cc3ccc(S(=O)(=O)N4CCc5ccccc5C4)cc3)ccc2[nH]1` [Example 2, 6-[4-(3,4-Dihydro-1H-isoquinoline-2-sulfonyl)benzyl]-4-trifluoromethyl-1H-quinolin-2-one], the IC50 is reported as 6.8 µM.
For `COc1ccc(N2CCN(S(=O)(=O)c3ccc(Cc4ccc5oc(=O)cc(C(F)(F)F)c5c4)cc3)CC2C)cc1` (stereo not shown) [Example 32, 6-{4-[4-(4-Methoxyphenyl)-3-methylpiperazine-1-sulfonyl]benzyl}-4-trifluoromethylchromen-2-one], the IC50 was 9.3 µM.
For `O=c1cc(C(F)(F)F)c2cc(Cc3ccc(S(=O)(=O)N4CCC(O)CC4)cc3)ccc2o1` [Example 56, 6-[4-(4-Hydroxypiperidine-1-sulfonyl)benzyl]-4-trifluoromethylchromen-2-one], the IC50 was > 10 µM.
With `O=c1cc(C(F)(F)F)c2cc(Cc3ccc(S(=O)(=O)N4CCCCC4CCO)cc3)ccc2[nH]1` (stereo not shown) [Example 17, 6-{4-[2-(2-Hydroxyethyl)piperidine-1-sulfonyl]benzyl}-4-trifluoromethyl-1H-quinolin-2-one] the IC50 was > 10 µM.
With `O=c1cc(C(F)(F)F)c2cc(Cc3ccc(S(=O)(=O)N4CCCC(O)C4)cc3)ccc2o1` (stereo not shown) [Example 27, 6-[4-(3-Hydroxypiperidine-1-sulfonyl)benzyl]-4-trifluoromethylchromen-2-one] the IC50 was > 10 µM.
With `COCCN1CCN(S(=O)(=O)c2ccc(Cc3ccc4oc(=O)cc(C(F)(F)F)c4c3)cc2)CC1` [Example 39, 6-{4-[4-(2-Methoxyethyl)piperazine-1-sulfonyl]benzyl}-4-trifluoromethylchromen-2-one] the IC50 was 9.4 µM.
Work on `O=c1cc(C(F)(F)F)c2cc(Cc3ccc(S(=O)(=O)N4CCCCC4c4cccnc4)cc3)ccc2o1` (stereo not shown) [Example 48, 6-[4-(3,4,5,6-Tetrahydro-2H-[2,3′]bipyridinyl-1-sulfonyl)benzyl]-4-trifluoromethylchromen-2-one] yielded an IC50 of 8.9 µM.
For `O=c1cc(C(F)(F)F)c2cc(Cc3ccc(S(=O)(=O)N4CCC(O)(c5cccs5)CC4)cc3)ccc2o1` [Example 33, 6-[4-(4-Hydroxy-4-thiophen-2-ylpiperidine-1-sulfonyl)benzyl]-4-trifluoromethylchromen-2-one], the IC50 was 8.6 µM.
With `CCOC(=O)N1CCN(S(=O)(=O)c2ccc(Cc3ccc4oc(=O)cc(C(F)(F)F)c4c3)cc2)CC1` [Example 29, 4-[4-(2-Oxo-4-trifluoromethyl-2H-chromen-6-ylmethyl)-benzenesulfonyl]piperazine-1-carboxylic acid ethylester] the IC50 was > 10 µM.
With `CCOC(=O)C1CCCN(S(=O)(=O)c2ccc(Cc3ccc4[nH]c(=O)cc(C(F)(F)F)c4c3)cc2)C1` (stereo not shown) [Example 1, 1-[4-(2-Oxo-4-trifluoromethyl-1,2-dihydroquinolin-6-ylmethyl)benzenesulfonyl]-piperidine-3-carboxylicacid ethyl ester] the IC50 was > 10 µM.
With `COC(=O)[C@@H]1CCCN1S(=O)(=O)c1ccc(Cc2ccc3oc(=O)cc(C(F)(F)F)c3c2)cc1` [Example 41, 1-[4-(2-Oxo-4-trifluoromethyl-2H-chromen-6-ylmethyl)-benzenesulfonyl]pyrrolidine-2-carboxylic acidmethyl ester] the IC50 was > 10 µM.
With `CN(C)CCN1CCN(S(=O)(=O)c2ccc(Cc3ccc4oc(=O)cc(C(F)(F)F)c4c3)cc2)CC1` [Example 55, 6-{4-[4-(2-Dimethylamino-ethyl)piperazine-1-sulfonyl]benzyl}-4-trifluoromethylchromen-2-one] the IC50 was > 10 µM.
In the case of `O=c1cc(C(F)(F)F)c2cc(Cc3ccc(S(=O)(=O)N4CCC(CO)CC4)cc3)ccc2o1` [Example 64, 6-[4-(4-Hydroxymethyl-piperidine-1-sulfonyl)benzyl]-4-trifluoromethylchromen-2-one], the IC50 is reported as 2.5 µM.
For `O=c1cc(C(F)(F)F)c2cc(Cc3ccc(S(=O)(=O)N4CCN(c5ccncc5)CC4)cc3)ccc2o1` [Example 50, 6-[4-(4-Pyridin-4-ylpiperazine-1-sulfonyl)benzyl]-4-trifluoromethylchromen-2-one], the IC50 was 1.6 µM.
With `O=c1cc(C(F)(F)F)c2cc(Cc3ccc(S(=O)(=O)N4CCCCCC4)cc3)ccc2o1` [Example 57, 6-[4-(Azepane-1-sulfonyl)benzyl]-4-trifluoromethylchromen-2-one] the IC50 was 6.8 µM.
For `CC1CCCCN1S(=O)(=O)c1ccc(Cc2ccc3[nH]c(=O)cc(C(F)(F)F)c3c2)cc1` (stereo not shown) [Example 22, 6-[4-(2-Methylpiperidine-1-sulfonyl)benzyl]-4-trifluoromethyl-1H-quinolin-2-one], the IC50 was > 10 µM.
Work on `CC1CCCCN1S(=O)(=O)c1ccc(Cc2ccc3oc(=O)cc(C(F)(F)F)c3c2)cc1` (stereo not shown) [Example 58, 6-[4-(2-Methylpiperidine-1-sulfonyl)benzyl]-4-trifluoromethylchromen-2-one] yielded an IC50 of 9.8 µM.
With `O=c1cc(C(F)(F)F)c2cc(Cc3ccc(S(=O)(=O)N4CCC5(CC4)OCCO5)cc3)ccc2[nH]1` [Example 6, 6-[4-(1,4-Dioxa-8-azaspiro[4.5]decane-8-sulfonyl)benzyl]-4-trifluoromethyl-1H-quinolin-2-one] the IC50 was > 10 µM.
For `O=c1cc(C(F)(F)F)c2cc(Cc3ccc(S(=O)(=O)N4CCSC4)cc3)ccc2o1` [Example 46, 6-[4-(Thiazolidine-3-sulfonyl)benzyl]-4-trifluoromethylchromen-2-one], the IC50 was > 10 µM.
With `CCOC(=O)C1CCN(S(=O)(=O)c2ccc(Cc3ccc4[nH]c(=O)cc(C(F)(F)F)c4c3)cc2)CC1` [Example 4] the IC50 was > 10 µM.
`CCOCCN1CCN(S(=O)(=O)c2ccc(Cc3ccc4oc(=O)cc(C(F)(F)F)c4c3)cc2)CC1` [Example 62, 6-{4-[4-(2-Ethoxyethyl)piperazine-1-sulfonyl]benzyl}-4-trifluoromethylchromen-2-one] was tested, and the IC50 was > 10 µM.
With `COc1cc2c(cc1OC)CN(S(=O)(=O)c1ccc(Cc3ccc4[nH]c(=O)cc(C(F)(F)F)c4c3)cc1)CC2` [Example 5, 6-[4-(6,7-Dimethoxy-3,4-dihydro-1H-isoquinoline-2-sulfonyl)benzyl]-4-trifluoromethyl-1H-quinolin-2-one] the IC50 was > 10 µM.
`O=c1cc(C(F)(F)F)c2cc(Cc3ccc(S(=O)(=O)N4CCC4)cc3)ccc2[nH]1` [Example 25, 6-[4-(Azetidine-1-sulfonyl)benzyl]-4-trifluoromethyl-1H-quinolin-2-one] showed an IC50 of 2.9 µM.
With `O=c1cc(C(F)(F)F)c2cc(Cc3ccc(S(=O)(=O)N4CCCC4CO)cc3)ccc2[nH]1` (stereo not shown) [Example 18, 6-[4-(2-Hydroxymethylpyrrolidine-1-sulfonyl)benzyl]-4-trifluoromethyl-1H-quinolin-2-one] the IC50 was 8 µM.
`O=c1cc(C(F)(F)F)c2cc(Cc3ccc(S(=O)(=O)N4CCCc5ccccc54)cc3)ccc2[nH]1` [Example 26, 6-[4-(3,4-Dihydro-2H-quinoline-1-sulfonyl)benzyl]-4-trifluoromethyl-1H-quinolin-2-one] showed an IC50 of 2 µM.
In the case of `CC1CCN(S(=O)(=O)c2ccc(Cc3ccc4oc(=O)cc(C(F)(F)F)c4c3)cc2)CC1` [Example 49, 6-[4-(4-Methylpiperidine-1-sulfonyl)benzyl]-4-trifluoromethylchromen-2-one], the IC50 is reported as > 10 µM.
`O=c1cc(C(F)(F)F)c2cc(Cc3ccc(S(=O)(=O)N4CCCN(CCc5ccccc5)CC4)cc3)ccc2o1` [Example 54] was tested, and the IC50 was 2.5 µM.
